Reference: patent publication US9273058B2 (BRISTOL-MYERS SQUIBB COMPANY, priority 2013, dated 2016)
Read-outs that look alike come from different tables or passages of the source.

Key:
CK1δ = CK1δ (Homo sapiens, UniProt P48730); assay: CK1δ kinase assay (Caliper LabChip electrophoretic separation of fluoresceinated peptide substrate and product); assay type: biochemical; details: 200 pM CK1δ, 50 μM ATP, 1.5 μM peptide, 22 hours at room temperature
Method in brief: (§1)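 Each reaction was incubated 22 hours at room temperature and terminated with EDTA. Read-out was microfluidic electrophoretic separation of fluoresceinated substrate and phospho-product.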

CK1ε = CK1ε (Homo sapiens, UniProt P49674); assay: CK1ε kinase assay (Caliper LabChip electrophoretic separation of fluoresceinated peptide substrate and product); assay type: biochemical; details: 200 pM CK1ε, 50 μM ATP, 1.5 μM peptide, 22 hours at room temperature
Method in brief: as §1

CK1ε, sequence (P49674 whole entry): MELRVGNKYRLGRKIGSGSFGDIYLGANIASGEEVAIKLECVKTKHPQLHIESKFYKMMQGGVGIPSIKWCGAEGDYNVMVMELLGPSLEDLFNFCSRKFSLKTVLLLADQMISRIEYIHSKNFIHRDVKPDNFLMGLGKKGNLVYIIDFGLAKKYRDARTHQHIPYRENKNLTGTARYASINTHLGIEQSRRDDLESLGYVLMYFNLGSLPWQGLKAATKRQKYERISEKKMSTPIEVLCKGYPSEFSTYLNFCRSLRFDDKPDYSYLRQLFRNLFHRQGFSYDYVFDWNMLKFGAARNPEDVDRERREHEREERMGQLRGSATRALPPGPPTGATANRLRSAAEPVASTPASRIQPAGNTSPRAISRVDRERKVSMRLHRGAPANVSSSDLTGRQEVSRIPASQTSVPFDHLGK
CK1δ, sequence (P48730 whole entry): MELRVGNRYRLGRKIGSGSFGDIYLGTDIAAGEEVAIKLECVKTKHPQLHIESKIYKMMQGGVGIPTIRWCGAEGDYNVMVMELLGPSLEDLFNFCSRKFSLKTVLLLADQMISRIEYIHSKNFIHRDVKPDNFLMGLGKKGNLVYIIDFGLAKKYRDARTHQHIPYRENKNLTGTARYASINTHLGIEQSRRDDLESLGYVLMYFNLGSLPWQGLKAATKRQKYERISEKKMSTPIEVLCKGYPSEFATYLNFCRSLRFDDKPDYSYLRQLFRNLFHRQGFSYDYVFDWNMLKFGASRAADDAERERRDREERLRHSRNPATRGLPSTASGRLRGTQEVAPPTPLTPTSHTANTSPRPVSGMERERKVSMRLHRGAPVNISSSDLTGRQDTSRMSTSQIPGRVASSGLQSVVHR

Row | SMILES | IC50 (CK1δ; read-out: CK1δ IC50 range) [nM] | IC50 (CK1ε; read-out: CK1ε IC50 range) [nM] | IC50 (CK1δ; read-out: CK1δ) [nM] | IC50 (CK1ε; read-out: CK1ε) [nM]
1 | CC(C)(C)NC(=O)N1Cc2c(C(N)=O)c(-c3ccc(F)c(Cl)c3)nn2C(C(C)(C)O)C1 (stereo not shown) [Compound A17, N^5-(tert-Butyl)-2-(3-chloro-4-fluorophenyl)-7-(2-hydroxypropan-2-yl)-6,7-dihydropyrazolo[1,5-a]pyrazine-3,5(4H)-dicarboxamide] | 10 to 100 | 10 to 100 |  | 
2 | NC(=O)c1c(-c2ccc(Cl)c(Cl)c2)nn2c1CN(C(=O)NCC1CCC(F)(F)CC1)CC2 [Compound 206, 2-(3,4-Dichlorophenyl)-N^5-((4,4-difluorocyclohexyl)methyl)-6,7-dihydropyrazolo[1,5-a] pyrazine-3,5(4H)-dicarboxamide] | 0.01 to 10 | 0.01 to 10 |  | 
3 | COCCC1CN(C(=O)NC(C)(C)C)Cc2c(C(N)=O)c(-c3ccc(F)c(Cl)c3)nn21 (single isomer, unassigned) [Compound A101, N^5-(tert-Butyl)-2-(3-chloro-4-fluorophenyl)-7-(2-methoxyethyl)-6,7-dihydropyrazolo[1,5-a]pyrazine-3,5(4H)-dicarboxamide] | 0.01 to 10 | 0.01 to 10 |  | 
4 | CC(C)(C)NC(=O)N1Cc2c(C(N)=O)c(-c3ccc(F)c(Cl)c3)nn2C(CN2CCOCC2)C1 (stereo not shown) [Compound A16, N^5-(tert-Butyl)-2-(3-chloro-4-fluorophenyl)-7-(morpholinomethyl)-6,7-dihydropyrazolo[1,5-a]pyrazine-3,5(4H)-dicarboxamide] | 10 to 100 | 0.01 to 10 |  | 
5 | NC(=O)c1c(-c2cccc(F)c2)nn2c1CN(C(=O)Nc1cccnn1)CC2 [Compound 91, 2-(3-Fluorophenyl)-N^5-(pyridazin-3-yl)-6,7-dihydropyrazolo[1,5-a]pyrazine-3,5(4H)-dicarboxamide] | 10 to 100 | 100 to 2000 |  | 
6 | NC(=O)c1c(-c2cccc(F)c2)nn2c1CN(C(=O)Nc1cccc(F)c1F)CC2 [Compound 28, N^5-(2,3-Difluorophenyl)-2-(3-fluorophenyl)-6,7-dihydropyrazolo[1,5-a]pyrazine-3,5(4H)-dicarboxamide] | 10 to 100 | 10 to 100 |  | 
7 | Cc1ccc(NC(=O)N2CCn3nc(-c4cccc(F)c4)c(C(N)=O)c3C2)nn1 [Compound 83, 2-(3-Fluorophenyl)-N^5-(6-methylpyridazin-3-yl)-6,7-dihydropyrazolo[1,5-a]pyrazine-3,5(4H)-dicarboxamide] | 100 to 2000 | 10 to 100 |  | 
8 | CC1(C)CC(NC(=O)N2CCn3nc(-c4cccc(F)c4)c(C(N)=O)c3C2)CC(C)(C)N1 [Compound 18, 2-(3-Fluorophenyl)-N^5-(2,2,6,6-tetramethylpiperidin-4-yl)-6,7-dihydropyrazolo[1,5-a]pyrazine-3,5(4H)-dicarboxamide] | 10 to 100 | 100 to 2000 |  | 
9 | NC(=O)c1c(-c2ccc(F)c(Cl)c2)nn2c1CN(C(=O)NC1CCCC1)CC2C(F)F (stereo not shown) [Compound A12, 2-(3-Chloro-4-fluorophenyl)-N^5-cyclopentyl-7-(difluoromethyl)-6,7-dihydropyrazolo[1,5-a]pyrazine-3,5(4H)-dicarboxamide] | 10 to 100 | 0.01 to 10 |  | 
10 | COc1ccc([C@H]2C[C@@H](NC(=O)N3CCn4nc(-c5ccc(F)c(Cl)c5)c(C(N)=O)c4C3)C2)cc1 [Compound 279, 2-(3-Chloro-4-fluorophenyl)-N^5-((1s,3s)-3-(4-methoxyphenyl)cyclobutyl)-6,7-dihydropyrazolo[1,5-a]pyrazine-3,5(4H)-dicarboxamide] | 0.01 to 10 | 0.01 to 10 |  | 
11 | CC(C)NC(=O)N1CCn2nc(-c3ccc(F)cc3)c(C(N)=O)c2C1 [Compound 2, 2-(4-Fluorophenyl)-N^5-isopropyl-6,7-dihydropyrazolo[1,5-a]pyrazine-3,5(4H)-dicarboxamide] | 10 to 100 | 10 to 100 |  | 
12 | CC(C)(C)NC(=O)N1CCn2nc(-c3cnc(N4CCOCC4)nc3)c(C(N)=O)c2C1 [Compound 147, N^5-(tert-Butyl)-2-(2-morpholinopyrimidin-5-yl)-6,7-dihydropyrazolo[1,5-a] pyrazine-3,5(4H)-dicarboxamide] | 100 to 2000 | 100 to 2000 |  | 
13 | NC(=O)c1c(-c2cccc(F)c2)nn2c1CN(C(=O)NCCc1ccc(F)cc1)CC2 [Compound 42, N^5-(4-Fluorophenethyl)-2-(3-fluorophenyl)-6,7-dihydropyrazolo[1,5-a]pyrazine-3,5(4H)-dicarboxamide] | 10 to 100 | 100 to 2000 |  | 
14 | NC(=O)c1c(-c2cccc(F)c2)nn2c1CN(C(=O)Nc1ccc(F)cc1Cl)CC2 [Compound 32, N^5-(2-Chloro-4-fluorophenyl)-2-(3-fluorophenyl)-6,7-dihydropyrazolo[1,5-a]pyrazine-3,5(4H)-dicarboxamide] | 10 to 100 | 10 to 100 |  | 
15 | CN(C)C(=O)C(C)(C)NC(=O)N1CCn2nc(-c3ccc(F)c(Cl)c3)c(C(N)=O)c2C1 [Compound 218, 2-(3-Chloro-4-fluorophenyl)-N^5-(1-(dimethylamino)-2-methyl-1-oxopropan-2-yl)-6,7-dihydropyrazolo[1,5-a] pyrazine-3,5(4H)-dicarboxamide] | 0.01 to 10 | 10 to 100 |  | 
16 | NC(=O)c1c(-c2ccc(F)c(Cl)c2)nn2c1CN(C(=O)NC13CCC(CC1)CC3)CC2 [Compound A58, N^5-(Bicyclo[2.2.2]octan-1-yl)-2-(3-chloro-4-fluorophenyl)-6,7-dihydropyrazolo[1,5-a]pyrazine-3,5(4H)-dicarboxamide] | 0.01 to 10 | 0.01 to 10 |  | 

The next lines start with the values.

Row | IC50 (CK1δ; read-out: CK1δ IC50 range) [nM] | IC50 (CK1ε; read-out: CK1ε IC50 range) [nM] | IC50 (CK1δ; read-out: CK1δ) [nM] | IC50 (CK1ε; read-out: CK1ε) [nM] | SMILES
17 | 0.01 to 10 | 0.01 to 10 |  |  | CC1Cn2nc(-c3ccc(F)c(Cl)c3)c(C(N)=O)c2CN1C(=O)NC1(C)CC(F)(F)C1 (single isomer, unassigned) [Compound 344, 2-(3-Chloro-4-fluorophenyl)-N^5-(3,3-difluoro-1-methylcyclobutyl)-6-methyl-6,7-dihydropyrazolo[1,5-a]pyrazine-3,5(4H)-dicarboxamide]
18 | 0.01 to 10 | 0.01 to 10 |  |  | COCC(C)(C)NC(=O)N1CCn2nc(-c3cccc(Cl)c3)c(C(N)=O)c2C1 [Compound A47, 2-(3-Chlorophenyl)-N^5-(1-methoxy-2-methylpropan-2-yl)-6,7-dihydropyrazolo[1,5-a] pyrazine-3,5(4H)-dicarboxamide]
19 | 0.01 to 10 | 0.01 to 10 |  |  | NC(=O)c1c(-c2cccc(Cl)c2)nn2c1CN(C(=O)NC1CC3(C1)CC3(F)F)CC2 (single isomer, unassigned) [Compound 323, 2-(3-Chlorophenyl)-N^5-(1,1-difluorospiro[2.3]hexan-5-yl)-6,7-dihydropyrazolo[1,5-a]pyrazine-3,5(4H)-dicarboxamide]
20 | 0.01 to 10 | 0.01 to 10 |  |  | NC(=O)c1c(-c2cc(Cl)cc(Cl)c2)nn2c1CN(C(=O)NC1CC(F)(F)C1)CC2 [Compound 293, 2-(3,5-Dichlorophenyl)-N^5-(3,3-difluorocyclobutyl)-6,7-dihydropyrazolo[1,5-a] pyrazine-3,5(4H)-dicarboxamide]
21 | 0.01 to 10 | 0.01 to 10 |  |  | NC(=O)c1c(-c2ccc(Cl)c(Cl)c2)nn2c1CN(C(=O)NC1CC(F)(F)C1)CC2 [Compound 294, 2-(3,4-Dichlorophenyl)-N^5-(3,3-difluorocyclobutyl)-6,7-dihydropyrazolo[1,5-a] pyrazine-3,5(4H)-dicarboxamide]
22 | 0.01 to 10 | 0.01 to 10 |  |  | CC1(NC(=O)N2CCn3nc(-c4ccc(F)c(Cl)c4)c(C(N)=O)c3C2)CC2(C1)CC2(F)F (single isomer, unassigned) [Compound 327, 2-(3-Chloro-4-fluorophenyl)-N5-(1,1-difluoro-5-methylspiro[2.3]hexan-5-yl)-6,7-dihydropyrazolo[1,5-a]pyrazine-3,5(4H)-dicarboxamide]
23 | 0.01 to 10 | 0.01 to 10 |  |  | CC1CC(NC(=O)N2CCn3nc(-c4cccc(Cl)c4)c(C(N)=O)c3C2)C1 (single isomer, unassigned) [Compound 251, 2-(3-Chlorophenyl)-N^5-(3-methylcyclobutyl)-6,7-dihydropyrazolo[1,5-a]pyrazine-3,5(4H)-dicarboxamide]
24 | 0.01 to 10 | 0.01 to 10 |  |  | NC(=O)c1c(-c2cccc(Cl)c2)nn2c1CN(C(=O)NC1(C(F)F)CC(F)(F)C1)CC2 [Compound 306, 2-(3-Chlorophenyl)-N^5-(1-(difluoromethyl)-3,3-difluorocyclobutyl)-6,7-dihydropyrazolo[1,5-a] pyrazine-3,5(4H)-dicarboxamide]
25 | 10 to 100 | 10 to 100 |  |  | NC(=O)c1c(-c2cccc(F)c2)nn2c1CN(C(=O)NC13CC(C1)C3)CC2 [Compound 24, N^5-(Bicyclo[1.1.1]pentan-1-yl)-2-(3-fluorophenyl)-6,7-dihydropyrazolo[1,5-a]pyrazine-3,5(4H)-dicarboxamide]
26 | 0.01 to 10 | 0.01 to 10 |  |  | NC(=O)c1c(-c2cccc(Cl)c2)nn2c1CN(C(=O)NC1CC(COC(F)F)C1)CC2 (single isomer, unassigned) [Compound 244, 2-(3-Chlorophenyl)-N^5-(3-((difluoromethoxy)methyl)cyclobutyl)-6,7-dihydropyrazolo[1,5-a]pyrazine-3,5(4H)-dicarboxamide]
27 | 0.01 to 10 | 0.01 to 10 |  |  | NC(=O)c1c(-c2ccc(F)c(Cl)c2)nn2c1CN(C(=O)N[C@@H]1CC[C@H]1COC(F)F)CC2 [Compound 241, 2-(3-Chloro-4-fluorophenyl)-N^5-((1R,2R)-2-((difluoromethoxy)methyl)cyclobutyl)-6,7-dihydropyrazolo[1,5-a]pyrazine-3,5(4H)-dicarboxamide]
28 | 0.01 to 10 | 0.01 to 10 | 0.5 | 0.3 | CC1(NC(=O)N2CCn3nc(-c4ccc(Cl)c(Cl)c4)c(C(N)=O)c3C2)CC(F)(F)C1 [Compound 297, 2-(3,4-Dichlorophenyl)-N^5-(3,3-difluoro-1-methylcyclobutyl)-6,7-dihydropyrazolo[1,5-a] pyrazine-3,5(4H)-dicarboxamide]
